Measured values published in article PMC12010937, “Evaluation of FXR Activity in Pollutants Identified in Sewage Sludge and Subsequent in Vitro and in Vivo Characterization of Metabolic Effects of Triphenyl Phosphate” (Environmental Health Perspectives, 2025).
Like-named read-outs stand apart in the source and are kept apart here.

System: C57BL/6N mice
Details: TPHP-H group, liver
[1] = adduct [M+Na]+, first of two TG 52:3 lines
[2] = adduct [M+Na]+, second of two TG 52:3 lines

Q: O=P(Oc1ccccc1)(Oc1ccccc1)Oc1ccccc1 [TPHP, triphenyl phosphate] was tested. Which “Z-score of CAR 6:0” value (adduct [M+H]+) did it give?
A: 0.97

Q: What about the “Z-score of CAR 10:0” value (adduct [M+H]+) of the same compound?
A: 0.72

Q: And the “Z-score of CAR 12:0” value (adduct [M+H]+)?
A: 0.32

Q: What about the “Z-score of CAR 16:2” value (adduct [M+H]+) of the same compound?
A: 1.03

Q: And the “Z-score of CAR 18:2” value (adduct [M+H]+)?
A: 1.01

Q: And the “Z-score of CAR 18:4” value (adduct [M+H]+)?
A: 0.35

Q: And the “Z-score of CAR 20:4” value (adduct [M+H]+)?
A: 0.29

Q: What about the “Z-score of NAE 14:0” value (adduct [M+H]+) of the same compound?
A: -0.67

Q: What about the “Z-score of NAE 20:5” value (adduct [M+H]+) of the same compound?
A: -0.01

Q: What about the “Z-score of PC 40:6” value (adduct [M+H]+) of the same compound?
A: -0.91

Q: And the “Z-score of PS 36:4” value (adduct [M+H]+)?
A: 0.46

Q: What about the “Z-score of SM 27:5;O2” value (adduct [M+H]+) of the same compound?
A: 0.61

Q: And the “Z-score of SM 28:3;O3” value (adduct [M+H]+)?
A: 0.70

Q: And the “Z-score of SM 31:3;O3” value (adduct [M+H]+)?
A: -0.94

Q: What about the “Z-score of SM 41:2;O2” value (adduct [M+H]+) of the same compound?
A: 0.44

Q: What about the “average intensity of CAR 6:0” value (adduct [M+H]+) of the same compound?
A: 3598107

Q: What about the “average intensity of CAR 10:0” value (adduct [M+H]+) of the same compound?
A: 1728654

Q: And the “average intensity of CAR 12:0” value (adduct [M+H]+)?
A: 2142093

Q: What about the “average intensity of CAR 16:2” value (adduct [M+H]+) of the same compound?
A: 3030917

Q: What about the “average intensity of CAR 18:2” value (adduct [M+H]+) of the same compound?
A: 20111001

Q: What about the “average intensity of CAR 18:4” value (adduct [M+H]+) of the same compound?
A: 9217007

Q: What about the “average intensity of CAR 20:4” value (adduct [M+H]+) of the same compound?
A: 30801597

Q: And the “average intensity of NAE 14:0” value (adduct [M+H]+)?
A: 23845

Q: What about the “average intensity of NAE 20:5” value (adduct [M+H]+) of the same compound?
A: 31668356

Q: What about the “average intensity of PC 40:6” value (adduct [M+H]+) of the same compound?
A: 6977163

Q: And the “average intensity of PS 36:4” value (adduct [M+H]+)?
A: 1402007

Q: And the “average intensity of SM 27:5;O2” value (adduct [M+H]+)?
A: 18765822

Q: What about the “average intensity of SM 28:3;O3” value (adduct [M+H]+) of the same compound?
A: 1926974

Q: And the “average intensity of SM 31:3;O3” value (adduct [M+H]+)?
A: 284040

Q: And the “average intensity of SM 41:2;O2” value (adduct [M+H]+)?
A: 8959905

Q: And the “Z-score of BMP 25:4” value (adduct [M+NH4]+)?
A: -0.92

Q: And the “Z-score of BMP 30:5” value (adduct [M+NH4]+)?
A: -0.72

Q: And the “Z-score of BMP 38:4” value (adduct [M+NH4]+)?
A: -0.80

Q: And the “Z-score of PG 21:2” value (adduct [M+NH4]+)?
A: -0.95

Q: What about the “Z-score of PI 39:10” value (adduct [M+NH4]+) of the same compound?
A: -0.92

Q: What about the “Z-score of TG 48:11” value (adduct [M+NH4]+) of the same compound?
A: -0.82

Q: And the “Z-score of TG 55:4” value (adduct [M+NH4]+)?
A: 1.02

Q: And the “average intensity of BMP 25:4” value (adduct [M+NH4]+)?
A: 4738753

Q: What about the “average intensity of BMP 30:5” value (adduct [M+NH4]+) of the same compound?
A: 17597

Q: What about the “average intensity of BMP 38:4” value (adduct [M+NH4]+) of the same compound?
A: 940807

Q: What about the “average intensity of PG 21:2” value (adduct [M+NH4]+) of the same compound?
A: 816725

Q: What about the “average intensity of PI 39:10” value (adduct [M+NH4]+) of the same compound?
A: 61034

Q: What about the “average intensity of TG 48:11” value (adduct [M+NH4]+) of the same compound?
A: 5429634

Q: What about the “average intensity of TG 55:4” value (adduct [M+NH4]+) of the same compound?
A: 11320635

Q: What about the “Z-score of Cer 42:1;O2” value (adduct [M+Na]+) of the same compound?
A: -0.92

Q: And the “Z-score of Cer 64:6;O2” value (adduct [M+Na]+)?
A: 0.66

Q: And the “Z-score of DG 19:1” value (adduct [M+Na]+)?
A: -0.58

Q: What about the “Z-score of DG 26:5” value (adduct [M+Na]+) of the same compound?
A: -0.58

Q: What about the “Z-score of DG 26:6” value (adduct [M+Na]+) of the same compound?
A: -0.75

Q: What about the “Z-score of PC 29:5” value (adduct [M+Na]+) of the same compound?
A: -0.84

Q: What about the “Z-score of PC 38:6” value (adduct [M+Na]+) of the same compound?
A: -0.76

Q: What about the “Z-score of PC 42:9” value (adduct [M+Na]+) of the same compound?
A: -0.79

Q: And the “Z-score of PS 40:7” value (adduct [M+Na]+)?
A: 0.85

Q: And the “Z-score of TG 52:2” value (adduct [M+Na]+)?
A: 0.76

Q: What about the “Z-score of TG 52:4” value (adduct [M+Na]+) of the same compound?
A: 0.88

Q: And the “average intensity of Cer 42:1;O2” value (adduct [M+Na]+)?
A: 679331

Q: What about the “average intensity of Cer 64:6;O2” value (adduct [M+Na]+) of the same compound?
A: 17434974

Q: And the “average intensity of DG 19:1” value (adduct [M+Na]+)?
A: 4218

Q: What about the “average intensity of DG 26:5” value (adduct [M+Na]+) of the same compound?
A: 1190306

Q: What about the “average intensity of DG 26:6” value (adduct [M+Na]+) of the same compound?
A: 269918

Q: And the “average intensity of PC 29:5” value (adduct [M+Na]+)?
A: 1903378

Q: What about the “average intensity of PC 38:6” value (adduct [M+Na]+) of the same compound?
A: 3451074

Q: What about the “average intensity of PC 42:9” value (adduct [M+Na]+) of the same compound?
A: 130359

Q: And the “average intensity of PS 40:7” value (adduct [M+Na]+)?
A: 5213900

Q: What about the “average intensity of TG 52:2” value (adduct [M+Na]+) of the same compound?
A: 10933392

Q: And the “average intensity of TG 52:4” value (adduct [M+Na]+)?
A: 3390540

Q: And the “Z-score of TG 52:3” value [1]?
A: 0.89

Q: And the “average intensity of TG 52:3” value [1]?
A: 1451015

Q: And the “Z-score of TG 52:3” value [2]?
A: 0.90

Q: What about the “average intensity of TG 52:3” value [2] of the same compound?
A: 11832628

Q: What about the “Z-score of Cer 40:1;O2” value (adduct [M-H]-) of the same compound?
A: -0.86

Q: What about the “Z-score of Cer 41:1;3O(2OH)” value (adduct [M-H]-) of the same compound?
A: -0.76

Q: What about the “Z-score of Cer 42:1;3O(2OH)” value (adduct [M-H]-) of the same compound?
A: -0.75

Q: And the “Z-score of Cer 43:1;3O(2OH)” value (adduct [M-H]-)?
A: -0.75

Q: And the “Z-score of FA 10:1” value (adduct [M-H]-)?
A: -0.63

Q: What about the “Z-score of FA 14:2” value (adduct [M-H]-) of the same compound?
A: 0.87

Q: And the “Z-score of FA 16:2;O” value (adduct [M-H]-)?
A: 0.12

Q: What about the “Z-score of FA 19:2;O2” value (adduct [M-H]-) of the same compound?
A: 0.47

Q: And the “Z-score of PG 34:2” value (adduct [M-H]-)?
A: -0.59

Q: And the “Z-score of PG 44:12” value (adduct [M-H]-)?
A: -0.58

Q: What about the “Z-score of PI 36:3” value (adduct [M-H]-) of the same compound?
A: -0.62

Q: And the “Z-score of PI 38:4” value (adduct [M-H]-)?
A: 0.28

Q: What about the “average intensity of Cer 40:1;O2” value (adduct [M-H]-) of the same compound?
A: 112540

Q: What about the “average intensity of Cer 41:1;3O(2OH)” value (adduct [M-H]-) of the same compound?
A: 650455

Q: And the “average intensity of Cer 42:1;3O(2OH)” value (adduct [M-H]-)?
A: 109690

Q: And the “average intensity of Cer 43:1;3O(2OH)” value (adduct [M-H]-)?
A: 95819

Q: And the “average intensity of FA 10:1” value (adduct [M-H]-)?
A: 124984

Q: And the “average intensity of FA 14:2” value (adduct [M-H]-)?
A: 2337946

Q: And the “average intensity of FA 16:2;O” value (adduct [M-H]-)?
A: 718403

Q: What about the “average intensity of FA 19:2;O2” value (adduct [M-H]-) of the same compound?
A: 6586718

Q: And the “average intensity of PG 34:2” value (adduct [M-H]-)?
A: 89164

Q: And the “average intensity of PG 44:12” value (adduct [M-H]-)?
A: 16526

Q: And the “average intensity of PI 36:3” value (adduct [M-H]-)?
A: 224637

Q: And the “average intensity of PI 38:4” value (adduct [M-H]-)?
A: 36494581
